Assay results reported in patent publication US11698357B2, “Method for screening, isolating and purifying analytes” (CHANG GUNG UNIVERSITY, priority 2019, dated 2023).

Legend:
MES-SA cells [1] = experiment: Percentage of live cells by fluorescent dye staining (Calcein-AM / EthD-1) and microscopy; assay type: cell-based, human
Protocol: (§1) In the present embodiment, cancer cell lines with (MES-SA/Dx5 cells; abbreviated as “Dx5” from the BCRC of Food Industry Research and Development Institute (FIRDI), Taiwan) and without (MES-SA cells from the BCRC of FIRDI) anti-cancer drug resistance were separately treated with various concentrations (0, 2.5, 5.0, 7.5, 10.0, 12.5, 15.0 μg ml^−1) of doxorubicin (doxorubicin hydrochloride; Enzo Life Sciences, CH) for 48 hours. The percentage of live cells was then evaluated by a combination of fluorescent dye staining and microscopic observation. Briefly, the drug-treated Dx5 cells were stained with the DiB cytoplasmic membrane labelling dye (Biotium, CA USA) and EthD-1 fluorescent dye (ethidium homodimer-1; Thermo Fisher Scientific, MA USA) to identify the living (blue staining), and dead (red staining) Dx5 cells, respectively. The drug-treated MES-SA cells were stained with Calcein-AM and EthD-1 fluorescent dyes (LIVE/DEAD1 Viability/Cytotoxicity Kit L-3224; Thermo Fisher Scientific, MA USA) to identify the living (green staining) and dead (red staining) cells, respectively. All the assays were performed according to the manufacturer's instructions. This was followed by microscopic observation using a fluorescence microscope (Zoom 160, OPTEM, USA). The overall viability of the cancer cells was then evaluated by determining the number of live cells relative to that of whole cells.

MES-SA/Dx5 cells [2] = experiment: Percentage of live cells by fluorescent dye staining (DiB / EthD-1) and microscopy; assay type: cell-based, human
Protocol: as §1

MES-SA cells [3] = experiment: MTT assay cell viability; assay type: cell-based, human; conditions: 48 hours
Protocol: (§2) Cell viability was also evaluated by assaying the intercellular dehydrogenase activity of cells using the commonly used MTT (thiazolyl blue tetrazolium bromide; Sigma Aldrich, MO USA) assay. Briefly, the cancer cells (i.e., MES-SA and Dx5 cells) were separately treated with doxorubicin as mentioned above. The drug-treated cancer cells were then assayed for viability (%) based on the manufacturer's instructions for the MTT assay kit.

MES-SA/Dx5 cells [4] = experiment: MTT assay cell viability; assay type: cell-based; conditions: Homo sapiens, 5.0 μg ml^−1 doxorubicin, 48 hours
Protocol: as §2

[5] = 5.0 μg ml^−1 doxorubicin for 48 hours
[6] = 5.0 μg ml^−1 doxorubicin, 48 hours

`COc1cccc2c1C(=O)c1c(O)c3c(c(O)c1C2=O)C[C@@](O)(C(=O)CO)C[C@@H]3O[C@H]1C[C@H](N)[C@H](O)[C@H](C)O1` [doxorubicin] was tested. Which dead cell percentage (MES-SA cells [1]; [5]) did it give?
Its dead cell percentage is 73.9%.

And the “percentage of live cells” value (MES-SA cells [1]; [6])?
The value was 26.1%.

What about the dead cell percentage (MES-SA/Dx5 cells [2]; [5]) of the same molecule?
The dead cell percentage was 4.5%.

And the “percentage of live cells” value (MES-SA/Dx5 cells [2]; [6])?
The value was 95.5%.

And the viability at 5 µg/mL (MES-SA cells [3]; Homo sapiens, 5.0 μg ml^−1 doxorubicin)?
The viability at 5 µg/mL was 2.2%.

What about the “cell viability (%) (MTT)” value (MES-SA cells [3]; various concentrations of doxorubicin) of the same molecule?
Its value is about 0%.

What about the viability at 5 µg/mL (MES-SA/Dx5 cells [4]) of the same molecule?
Its viability at 5 µg/mL is 73.5%.
